Patent publication US8383637B2, “2-amino-quinazoline derivatives useful as inhibitors of β-secretase (BACE)” (Jansssen Pharmaceutica N.V., priority 2004, dated 2013)
Values joined by “and” are separate entries in the source; they are usually repeats but may differ in a detail not shown here. Identical values can stand only once.

Target: T1, β-secretase(BACE) (Homo sapiens, UniProt P56817)
T1 construct: purchased Panvera
Test: BACE FS1% Inhibition Assay
Type: biochemical
Conditions: FS1 substrate; for % Inhibition (FS) 0.3 μM / inhibition at 0.3 µM: 0.3 μM test compound; for % Inhibition (FS) 1 μM / inhibition at 1 µM: 1 μM test compound; for % Inhibition (FS) 3 μM / inhibition at 3 µM: 3 μM test compound; for inhibition at 0.3 µM: read-out: % Inhibition (FS) 0.3 μM; for inhibition at 1 µM: read-out: % Inhibition (FS) 1 μM; for inhibition at 3 µM: read-out: % Inhibition (FS) 3 μM
Summary of the method: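 Percent inhibition at each tested concentration, referenced to enzyme-free blank and vehicle-only positive control. Reaction: compound and BACE (4 μg/mL working stock) mixed 20 min at room temperature before FS1 substrate (300 μg/mL working stock), then 1 h at room temperature.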

T1 sequence (P56817 46-501): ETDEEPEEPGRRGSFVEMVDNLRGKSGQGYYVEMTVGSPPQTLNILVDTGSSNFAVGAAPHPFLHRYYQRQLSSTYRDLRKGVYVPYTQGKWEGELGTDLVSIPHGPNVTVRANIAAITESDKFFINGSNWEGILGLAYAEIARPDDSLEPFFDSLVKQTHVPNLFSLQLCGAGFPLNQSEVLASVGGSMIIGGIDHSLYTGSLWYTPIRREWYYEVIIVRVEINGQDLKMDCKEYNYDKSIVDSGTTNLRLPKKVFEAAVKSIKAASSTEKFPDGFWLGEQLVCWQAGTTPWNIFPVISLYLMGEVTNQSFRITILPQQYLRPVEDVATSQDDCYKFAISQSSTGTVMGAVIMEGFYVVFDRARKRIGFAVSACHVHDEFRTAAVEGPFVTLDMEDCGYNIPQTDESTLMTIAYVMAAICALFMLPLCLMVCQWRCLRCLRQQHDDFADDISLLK

SMILES | % Inhibition (FS) 0.3 μM | % Inhibition (FS) 1 μM | % Inhibition (FS) 3 μM | % Inhibition (FS) 3 μM (3 µM) | inhibition at 0.3 µM | inhibition at 1 µM | inhibition at 3 µM
NC1=Nc2ccc(Oc3ccccc3)cc2CN1Cc1cccc(C(=O)N2CCCCC2)c1 [Compound 443] | <30% | 39% | 67% |  |  |  | 
NC1=Nc2ccc(Oc3ccccc3)cc2CN1Cc1cccc(C(=O)NC2CCCCC2)c1 [Compound 451] | <30% | <30% | <30% |  |  |  | 
CN(C(=O)c1ccccc1CN1Cc2cc(Oc3ccccc3)ccc2N=C1N)C1CCCCC1 [Compound 463] | <30% | <30% | <30% |  |  |  | 
COc1cccc(OC)c1Oc1ccc2c(c1)CN(CCC(=O)NC1C3CC4CC(C3)CC1C4)C(N)=N2 (stereo not drawn) [Compound 465] | <30% | <30% | <30% |  |  |  | 
COc1ccc(C)cc1Oc1ccc2c(c1)CN(Cc1cccc(C(=O)N(C)C3CCCCC3)c1)C(N)=N2 [Compound 467] | <30% | <30% | <30% |  |  |  | 
COc1ccc(-c2nc3ccccc3s2)c(Oc2ccc3c(c2)CN(Cc2cccc(C(=O)N(C)C4CCCCC4)c2)C(N)=N3)c1 [Compound 469] | <30% | <30% | <30% |  |  |  | 
CN(C(=O)c1cccc(CN2Cc3cc(Oc4ccccc4S(C)(=O)=O)ccc3N=C2N)c1)C1CCCCC1 [Compound 472] | <30% | <30% | <30% |  |  |  | 
Cc1cccc(C)c1Oc1ccc2c(c1)CN(Cc1cccc(C(=O)N(C)C3CCCCC3)c1)C(N)=N2 [Compound 475] | <30% | <30% | <30% |  |  |  | 
COc1cccc(OC)c1Oc1ccc2c(c1)CN(Cc1cccc(C(=O)N(C)C3CCCCC3)c1)C(N)=N2 [Compound 477] | <30% | <30% | <30% |  |  |  | 
CC(C)Oc1ccccc1Oc1ccc2c(c1)CN(Cc1cccc(C(=O)N(C)C3CCCCC3)c1)C(N)=N2 [Compound 478] | <30% | <30% | 46% |  |  |  | 
CN(C)c1cccc(Oc2ccc3c(c2)CN(Cc2cccc(C(=O)N(C)C4CCCCC4)c2)C(N)=N3)c1 [Compound 479] | <30% | <30% | 81% |  |  |  | 
C=CCc1cccc(C)c1Oc1ccc2c(c1)CN(Cc1cccc(C(=O)N(C)C3CCCCC3)c1)C(N)=N2 [Compound 480] | <30% | <30% | 38% |  |  |  | 
CCCc1cccc(C)c1Oc1ccc2c(c1)CN(Cc1cccc(C(=O)N(C)C3CCCCC3)c1)C(N)=N2 [Compound 482] | <30% | <30% | 43% |  |  |  | 
C[C@@H](CNC(=O)C1CCCCC1)N1Cc2cc(Oc3ccccc3)ccc2N=C1N [Compound 486] | <30% | <30% | <30% |  |  |  | 
COc1ccccc1-c1ccc2c(c1)CN(CCNC(=O)C1(C(N)=O)CC1)C(N)=N2 [Compound 488] | <30% | <30% | <30% |  |  |  | 
COc1ccccc1-c1ccc2c(c1)CN(CCNC(=O)C1CCN(C(C)=O)CC1)C(N)=N2 [Compound 491] | <30% | <30% |  | 44% and <30% |  |  | 
CC(C)(C)OC(=O)N1CCC(N2Cc3cc(Oc4ccccc4)ccc3N=C2N)CC1 [Compound 499, 4-(2-Amino-6-phenoxy-4H-quinazolin-3-yl)-piperidine-1-carboxylic acid tert-butyl ester] |  |  |  |  | < 30% | < 30% | < 30%
CC1CCCCN1C(=O)CCCC(CCC(=O)N1CCCCC1C)N1Cc2cc(Oc3ccccc3)ccc2N=C1N (stereo not drawn) [Compound 504] | <30% | 31% | 96% |  |  |  | 
COc1ccccc1-c1ccc2c(c1)CN([C@@H](CCC(=O)N(C)C1CCCCC1)C1CCCCC1)C(N)=N2 [Compound 506] | 106% | 115% | 128% |  |  |  | 
CC(C)(C)OC(=O)N1CCC(CN2Cc3cc(Oc4ccccc4)ccc3N=C2N)CC1 [Compound 509] | <30% | <30% | 41% |  |  |  | 
CN(C(=O)c1cccc(CN2Cc3cc(OCc4ccccc4-c4ccccc4)ccc3N=C2N)c1)C1CCCCC1 [Compound 513] | <30% | <30% | <30% |  |  |  | 
CC(C)CCOc1ccc2c(c1)CN(Cc1cccc(C(=O)N(C)C3CCCCC3)c1)C(N)=N2 [Compound 517, 3-[2-Amino-6-(3-methyl-butoxy)-4H-quinazolin-3-ylmethyl]-N-cyclohexyl-N-methyl-benzamide] |  |  |  |  | < 30% | < 30% | 40%

More lines, main results first:

% Inhibition (FS) 0.3 μM | % Inhibition (FS) 1 μM | % Inhibition (FS) 3 μM | % Inhibition (FS) 3 μM (3 µM) | SMILES | inhibition at 0.3 µM | inhibition at 1 µM | inhibition at 3 µM
<30% | 29% | 48% |  | CN(C(=O)c1cccc(CN2Cc3cc(Nc4ccc5c(c4)OCO5)ccc3N=C2N)c1)C1CCCCC1 [Compound 441] |  |  | 
<30% | 58% | 101% |  | CSc1ccc(Nc2ccc3c(c2)CN(Cc2cccc(C(=O)N(C)C4CCCCC4)c2)C(N)=N3)cc1 [Compound 442] |  |  | 
<30% | 42% | 78% |  | NC1=Nc2ccc(Oc3ccccc3)cc2CN1C(CCCC(=O)N1CCCCC1)CCC(=O)N1CCCCC1 (stereo not drawn) [Compound 452] |  |  | 
<30% | <30% | 53% |  | CC(C)c1ccccc1Oc1ccc2c(c1)CN(CCC(=O)NC1C3CC4CC(C3)CC1C4)C(N)=N2 (stereo not drawn) [Compound 466] |  |  | 
<30% | <30% | <30% |  | COc1cccc(C)c1Oc1ccc2c(c1)CN(Cc1cccc(C(=O)N(C)C3CCCCC3)c1)C(N)=N2 [Compound 468] |  |  | 
<30% | <30% | 31% |  | CN(C(=O)c1cccc(CN2Cc3cc(Oc4ccccc4-c4nc5ccccc5s4)ccc3N=C2N)c1)C1CCCCC1 [Compound 470] |  |  | 
<30% | <30% | 38% |  | CN(C(=O)c1cccc(CN2Cc3cc(Oc4ccccc4-n4cccc4)ccc3N=C2N)c1)C1CCCCC1 [Compound 471] |  |  | 
<30% | <30% | <30% |  | CN(C(=O)c1cccc(CN2Cc3cc(Oc4cccc(-c5ccc6ccccc6n5)c4)ccc3N=C2N)c1)C1CCCCC1 [Compound 473] |  |  | 
<30% | <30% | <30% |  | CSc1ccccc1Oc1ccc2c(c1)CN(Cc1cccc(C(=O)N(C)C3CCCCC3)c1)C(N)=N2 [Compound 474] |  |  | 
<30% | <30% | 32% |  | C=CCc1cccc(OC)c1Oc1ccc2c(c1)CN(Cc1cccc(C(=O)N(C)C3CCCCC3)c1)C(N)=N2 [Compound 481] |  |  | 
<30% | <30% | <30% |  | CN(C(=O)c1cccc(CN2Cc3cc(Oc4ccccc4C(=O)N4CCCC4)ccc3N=C2N)c1)C1CCCCC1 [Compound 483] |  |  | 
<30% | <30% | 62% |  | NC1=Nc2ccc(Oc3ccccc3)cc2CN1[C@H](CNC(=O)C1CCCCC1)C1CCCCC1 [Compound 484] |  |  | 
<30% | <30% | <30% |  | COc1ccccc1-c1ccc2c(c1)CN(CCNC(=O)CN)C(N)=N2 [Compound 490] |  |  | 
<30% | <30% | 49% |  | COc1ccccc1-c1ccc2c(c1)CN(CCNC(=O)CCN)C(N)=N2 [Compound 493] |  |  | 
<30% | <30% | <30% |  | COc1ccccc1-c1ccc2c(c1)CN(CCNC(=O)CCCN)C(N)=N2 [Compound 494] |  |  | 
<30% | <30% | 90% |  | CN(C(=O)c1ccc(CN2Cc3cc(Oc4ccccc4)ccc3N=C2N)s1)C1CCCCC1 [Compound 503] |  |  | 
<30% | <30% | 37% |  | CC(C)(C)OC(=O)N1CCCCC(N2Cc3cc(Oc4ccccc4)ccc3N=C2N)C1 (stereo not drawn) [Compound 510] |  |  | 
<30% | <30% | 51% |  | CN(C(=O)c1cccc(CN2Cc3cc(Oc4ccccc4C4CCCC4)ccc3N=C2N)c1)C1CCCCC1 [Compound 512] |  |  | 
<30% | <30% | <30% |  | COc1cccc(COc2ccc3c(c2)CN(Cc2cccc(C(=O)N(C)C4CCCCC4)c2)C(N)=N3)c1 [Compound 514] |  |  | 
<30% | <30% | <30% |  | CCCCCOc1ccc2c(c1)CN(Cc1cccc(C(=O)N(C)C3CCCCC3)c1)C(N)=N2 [Compound 516] |  |  | 
<30% | <30% | <30% |  | CC(C)COc1ccc2c(c1)CN(Cc1cccc(C(=O)N(C)C3CCCCC3)c1)C(N)=N2 [Compound 518] |  |  | 
